Measured values: patent publication US20240025906A1 (NEURON23, INC., priority 2022, published 2024)

Assays:
[1] = tested on: JAK1/TYK2 pSTAT5 (Tyr694/699) in THP-1 cell line; test: IFNa-stimulated JAK1/TYK2 pSTAT5 (Tyr694/699) inhibition cellular assay, AlphaLISA; assay type: cell-based; settings: Homo sapiens; THP-1 cells, IFNa-stimulated, AlphaLISA (Assay B); read-out: Cellular THP1_IFNa-pSTATS_IC50
Summary of the method: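 Compound dilutions were dispensed first, and HBSS-suspended THP-1 cells were added on top (final top concentration 10000 nM, 6-fold series). After 1 h at 37 °C, IFNa (100 ng/mL as added) was applied for 30 min. Cells were then lysed and pSTAT5 was quantified by AlphaLISA.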

TYK2 JH2 = biological target: T1, TYK2 JH2 (Homo sapiens, UniProt P29597); test: TYK2 JH2 binding assay (KINOMEscan KdELECT competitive binding); settings: TYK2 JH2 domain, KINOMEscan KdELECT (Assay A); read-out: Biochemical TYK2_JH2_Kd
T1 construct: purchased DiscoverX (KINOMEscan KdELECT service); host or cells: E. coli BL21-derived (T7 phage display) or HEK-293
T1 sequence (P29597 589-875 limits assumed): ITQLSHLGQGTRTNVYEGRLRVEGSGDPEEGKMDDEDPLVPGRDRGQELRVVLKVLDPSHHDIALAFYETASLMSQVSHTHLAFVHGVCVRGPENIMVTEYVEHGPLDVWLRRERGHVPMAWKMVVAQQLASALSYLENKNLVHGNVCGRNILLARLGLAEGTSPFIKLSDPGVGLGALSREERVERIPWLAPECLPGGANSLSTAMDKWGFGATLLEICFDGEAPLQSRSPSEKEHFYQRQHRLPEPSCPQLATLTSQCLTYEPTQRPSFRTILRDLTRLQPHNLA
Summary of the method: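 Competition binding, KdELECT format. Kinase (phage-tagged, E. coli BL21-derived host; or HEK-293, DNA-tagged) + ligand-coated streptavidin beads + cpd, 1 h RT, final DMSO 0.9%. Wash, elute 30 min with 0.5 μM non-biotinylated ligand; qPCR readout. Kd: 11-pt, 3-fold series.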

SMILES	IC50 [1] [nM]	Kd (TYK2 JH2) [nM]
CNc1ncc(Nc2ccccc2)c2cc(NC(=O)C3CC3)ncc12 [Example 134, N-(8-(methylamino)-5-(phenylamino)-2,7-naphthyridin-3-yl)cyclopropanecarboxamide]	> 500	100 to 1000
C=C(c1ccc(OC)cc1)c1cnc(NC)c2cnc(NC(=O)C3CC3)cc12 [Example 136]	> 500	100 to 1000
CNc1ncc(-c2nc3ccccc3[nH]2)c2cc(NC(=O)C3CC3)ncc12 [Example 139, N-(5-(1H-benzo[d]imidazol-2-yl)-8-(methylamino)-2,7-naphthyridin-3-yl)cyclopropanecarboxamide]	> 500	≤ 100
CNc1ncc(-c2nc(C)c[nH]2)c2cc(NC(=O)C3CC3)ncc12 [Example 140, N-(5-(4-methyl-1H-imidazol-2-yl)-8-(methylamino)-2,7-naphthyridin-3-yl)cyclopropanecarboxamide]	> 500	≤ 100
CNc1ncc(-c2ncn(C)n2)c2cc(NC(=O)C3CC3)ncc12 [Example 141, N-(S-(1-methyl-1H-1,2,4-triazol-3-yl)-8-(methylamino)-2,7-naphthyridin-3-yl)cyclopropanecarboxamide]	> 500	≤ 100
CNc1ncc(-c2nc3ccccc3o2)c2cc(NC(=O)C3CC3)ncc12 [Example 142, N-(5-(benzo[d]oxazol-2-yl)-8-(methylamino)-2,7-naphthyridin-3-yl)cyclopropanecarboxamide]	≤ 500	≤ 100
CNc1ncc(-c2ccc(C)o2)c2cc(NC(=O)C3CC3)ncc12 [Example 143, N-(8-(methylamino)-5-(5-methylfuran-2-yl)-2,7-naphthyridin-3-yl)cyclopropanecarboxamide]	≤ 500	≤ 100
CNc1ncc(-c2nc3ccccc3s2)c2cc(NC(=O)C3CC3)ncc12 [Example 145, N-(5-(benzo[d]thiazol-2-yl)-8-(methylamino)-2,7-naphthyridin-3-yl)cyclopropanecarboxamide]	≤ 500	≤ 100
CNc1ncc(-c2ccn(C(C)C)n2)c2cc(NC(=O)C3CC3)ncc12 [Example 148, N-(5-(1-isopropyl-1H-pyrazol-3-yl)-8-(methylamino)-2,7-naphthyridin-3-yl)cyclopropanecarboxamide]	≤ 500	≤ 100
CNc1ncc(-c2ccn(CC(C)C)n2)c2cc(NC(=O)C3CC3)ncc12 [Example 149, N-(5-(1-isobutyl-1H-pyrazol-3-yl)-8-(methylamino)-2,7-naphthyridin-3-yl)cyclopropanecarboxamide]	> 500	≤ 100
CNc1ncc(-c2ccn(Cc3ncn(C)n3)n2)c2cc(NC(=O)C3CC3)ncc12 [Example 150, N-(5-(1-((1-methyl-1H-1,2,4-triazol-3-yl)methyl)-1H-pyrazol-3-yl)-8-(methylamino)-2,7-naphthyridin-3-yl)cyclopropanecarboxamide]	> 500	≤ 100
CNc1ncc(-c2ccn(Cc3nccs3)n2)c2cc(NC(=O)C3CC3)ncc12 [Example 151, N-(8-(methylamino)-5-(1-(thiazol-2-ylmethyl)-1H-pyrazol-3-yl)-2,7-naphthyridin-3-yl)cyclopropanecarboxamide]	> 500	≤ 100
CNc1ncc(-c2ccn(Cc3noc(C)n3)n2)c2cc(NC(=O)C3CC3)ncc12 [Example 152, N-(5-(1-((5-methyl-1,2,4-oxadiazol-3-yl)methyl)-1H-pyrazol-3-yl)-8-(methylamino)-2,7-naphthyridin-3-yl)cyclopropanecarboxamide]	> 500	≤ 100
CNc1ncc(-c2ccn(CC3CCS(=O)(=O)CC3)n2)c2cc(NC(=O)C3CC3)ncc12 [Example 153B, N-(5-(1-((1,1-dioxidotetrahydro-2H-thiopyran-4-yl)methyl)-1H-pyrazol-3-yl)-8-(methylamino)-2,7-naphthyridin-3-yl)cyclopropanecarboxamide]	> 500	≤ 100
CNc1ncc(-c2ccn(Cc3ccccn3)n2)c2cc(NC(=O)C3CC3)ncc12 [Example 154, N-(8-(methylamino)-5-(1-(pyridin-2-ylmethyl)-1H-pyrazol-3-yl)-2,7-naphthyridin-3-yl)cyclopropanecarboxamide]	> 500	≤ 100
CNc1ncc(-c2nc3ccccn3n2)c2cc(NC(=O)C3CC3)ncc12 [Example 155, N-(5-([1,2,4]triazolo[1,5-a]pyridin-2-yl)-8-(methylamino)-2,7-naphthyridin-3-yl)cyclopropanecarboxamide]	≤ 500	≤ 100
CNc1ncc(-c2ccn3nc(N4CCC4)nc3c2)c2cc(NC(=O)C3CC3)ncc12 [Example 156, N-(5-(2-(azetidin-1-yl)-[1,2,4]triazolo[1,5-a]pyridin-7-yl)-8-(methylamino)-2,7-naphthyridin-3-yl)cyclopropanecarboxamide]	> 500	≤ 100

Other lines, results leading:

IC50 [1] [nM]	Kd (TYK2 JH2) [nM]	SMILES
> 500	≤ 100	CNc1ncc(-c2ncc(C)o2)c2cc(NC(=O)C3CC3)ncc12 [Example 133, N-(8-(methylamino)-5-(5-methyloxazol-2-yl)-2,7-naphthyridin-3-yl)cyclopropanecarboxamide]
≤ 500	≤ 100	CNc1ncc(/C=C/c2ccc(OC)cc2)c2cc(NC(=O)C3CC3)ncc12 [Example 135, (E)-N-(5-(4-methoxystyryl)-8-(methylamino)-2,7-naphthyridin-3-yl)cyclopropanecarboxamide]
≤ 500	≤ 100	CNc1ncc(C#Cc2ccccc2)c2cc(NC(=O)C3CC3)ncc12 [Example 137, N-(8-(methylamino)-5-(phenylethynyl)-2,7-naphthyridin-3-yl)cyclopropanecarboxamide]
> 500	≤ 100	CNc1ncc(-c2cc(C)ns2)c2cc(NC(=O)C3CC3)ncc12 [Example 138, N-(8-(methylamino)-5-(3-methylisothiazol-5-yl)-2,7-naphthyridin-3-yl)cyclopropanecarboxamide]
> 500	≤ 100	CNc1ncc(-c2ccc(C(=O)C3CC3)cc2)c2cc(NC(=O)C3CC3)ncc12 [Example 144, N-(5-(4-(cyclopropanecarbonyl)phenyl)-8-(methylamino)-2,7-naphthyridin-3-yl)cyclopropanecarboxamide]
≤ 500	≤ 100	CCn1ccc(-c2cnc(NC)c3cnc(NC(=O)C4CC4)cc23)n1 [Example 147, N-(5-(1-ethyl-1H-pyrazol-3-yl)-8-(methylamino)-2,7-naphthyridin-3-yl)cyclopropanecarboxamide]
> 500	≤ 100	CNc1ncc(-c2ccn(CC3CCSCC3)n2)c2cc(NC(=O)C3CC3)ncc12 [Example 153A, N-(8-(methylamino)-5-(1-((tetrahydro-2H-thiopyran-4-yl)methyl)-1H-pyrazol-3-yl)-2,7-naphthyridin-3-yl)cyclopropanecarboxamide]
≤ 500	≤ 100	CNc1ncc(-c2nc(-c3ccccc3)co2)c2cc(NC(=O)C3CC3)ncc12 [Example 157, N-(8-(methylamino)-5-(4-phenyloxazol-2-yl)-2,7-naphthyridin-3-yl)cyclopropanecarboxamide]
